The results in this text go back to US11466016B2, “Pharmaceutical compounds” (priority 2018, dated 2022).

Structures are written as SMILES. pIC50: −log10 of the molar value. Counter-ions that a name gives are not always drawn. Like-named read-outs stand apart in the source and are kept apart here.

The experiment deals with SHP2 (Homo sapiens (Human), UniProt Q06124). As to the kind of experiment: SHP2 Biochemical Assay (DiFMUP conversion, pIRS1 activating peptide). On the procedure:
SHP2 activity was monitored by measuring the conversion of the surrogate substrate 6,8-difluoromethylumbelliferyl phosphate (DiFMUP) to the fluorescent product, 6,8-difluoromethylumbelliferone (DiFMU).
SHP2 was pre-incubated with test compounds and the activating peptide pIRS1 (H2N-LN(pY)IDLDLV-(PEG)8-LST(pY)ASINFQK-amide) for 30 min, prior to addition of the […] (DiFMUP), (Thermo Fisher D6567). […] Rates of reaction were then measured over 30 min by monitoring fluorescence on a BMG Pherastar reader at excitation 360 nm/emission 450 nm. IC50 values were calculated from the normalized dose-response plots using four parameter logistic curve fit.

The mark [1] stands for this setting: DiFMUP substrate, 0.25 μM pIRS1 peptide, 30 min pre-incubation, average where more than one data point, read-out: SHP2 (IC50).

SHP2, sequence (Q06124 whole entry): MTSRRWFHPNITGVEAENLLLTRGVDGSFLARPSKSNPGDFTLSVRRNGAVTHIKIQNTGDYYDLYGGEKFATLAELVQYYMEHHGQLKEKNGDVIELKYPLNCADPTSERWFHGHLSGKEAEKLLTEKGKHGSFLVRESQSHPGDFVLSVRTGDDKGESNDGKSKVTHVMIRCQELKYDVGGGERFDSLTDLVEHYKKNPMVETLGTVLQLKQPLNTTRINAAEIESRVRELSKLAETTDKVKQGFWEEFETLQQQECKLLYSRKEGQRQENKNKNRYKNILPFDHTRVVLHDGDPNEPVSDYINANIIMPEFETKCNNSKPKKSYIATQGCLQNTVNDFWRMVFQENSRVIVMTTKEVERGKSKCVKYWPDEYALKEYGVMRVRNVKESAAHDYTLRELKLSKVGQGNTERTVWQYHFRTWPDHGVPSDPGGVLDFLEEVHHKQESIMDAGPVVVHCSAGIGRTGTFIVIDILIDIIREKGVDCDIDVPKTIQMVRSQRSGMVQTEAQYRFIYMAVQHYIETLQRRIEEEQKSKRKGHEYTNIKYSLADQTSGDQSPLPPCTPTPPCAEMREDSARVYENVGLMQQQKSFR

Take `COc1cnc2ccc(-c3n[nH]c4nc(N5[C@@H]6CC[C@H]5[C@@H](F)[C@@H](N)C6)c(CO)nc34)c(Cl)c2n1` [Example 109, {6-[(1S,2S,3S,5R)-3-amino-2-fluoro-8-azabicyclo[3.2.1]octan-8-yl]-3-(5-chloro-3-methoxyquinoxalin-6-yl)-1H-pyrazolo[3,4-b]pyrazin-5-yl}methanol]: the negative logarithm of the IC50 (pIC50) – broadly, the IC50 on a negative log10 scale, so that one unit is a factor of ten – under setting [1] was 7.96.

In turn, `CN(C)c1cnc2ccc(-c3n[nH]c4nc(N5[C@@H]6CC[C@H]5[C@@H](F)[C@@H](N)C6)c(CO)nc34)c(Cl)c2n1` [Example 130, {6-[(1S,2S,3S,5R)-3-amino-2-fluoro-8-azabicyclo[3.2.1]octan-8-yl]-3-[5-chloro-3-(dimethylamino)quinoxalin-6-yl]-1H-pyrazolo[3,4-b]pyrazin-5-yl}methanol] showed a pIC50 of 8.02.

`CN(C)c1cnc2ccc(-c3n[nH]c4nc(N5[C@@H]6CC[C@H]5C[C@@](C)(N)C6)c(CO)nc34)c(Cl)c2n1` [Example 131, {6-[endo-3-amino-3-methyl-8-azabicyclo[3.2.1]octan-8-yl]-3-[5-chloro-3-(dimethylamino)quinoxalin-6-yl]-1H-pyrazolo[3,4-b]pyrazin-5-yl}methanol] gave a negative logarithm of the IC50 (pIC50) of 8.06.

Regarding `Cn1cc2c(Cl)c(-c3c[nH]c4nc(N5[C@@H]6CC[C@H]5C[C@H](N)C6)cnc34)ccc2n1` [Example 2, exo-8-[7-(4-chloro-2-methyl-2H-indazol-5-yl)-5H-pyrrolo[2,3-b]pyrazin-3-yl]-8-azabicyclo[3.2.1]octan-3-amine], under setting [1], the pIC50 is 8.09.

On to `CN(C)c1ccc2ccc(-c3c[nH]c4nc(N5[C@@H]6CC[C@H]5C[C@@H](N)C6)cnc34)c(Cl)c2n1` [Example 22, 7-{3-[endo-3-amino-8-azabicyclo[3.2.1]octan-8-yl]-5H-pyrrolo[2,3-b]pyrazin-7-yl}-8-chloro-N,N-dimethylquinolin-2-amine, hydrochloride salt], for which the pIC50 under setting [1] is 7.59.

Regarding `Cn1nc2ccc(-c3n[nH]c4nc(N5[C@@H]6CC[C@H]5C[C@@](C)(N)C6)c(CO)nc34)c(Cl)c2c1Cl` [Example 116, {6-[endo-3-amino-3-methyl-8-azabicyclo[3.2.1]octan-8-yl]-3-(3,4-dichloro-2-methyl-2H-indazol-5-yl)-1H-pyrazolo[3,4-b]pyrazin-5-yl}methanol], the negative logarithm of the IC50 (pIC50) under setting [1] was 8.12.

For the compound `COc1cnc2ccc(-c3n[nH]c4nc(N5[C@@H]6CC[C@H]5C[C@@H](N)C6)c(C)nc34)c(Cl)c2n1` [Example 135, endo-8-[3-(5-chloro-3-methoxyquinoxalin-6-yl)-5-methyl-1H-pyrazolo[3,4-b]pyrazin-6-yl]-8-azabicyclo[3.2.1]octan-3-amine], under setting [1], the negative-log IC50 (pIC50) is 7.80.

As for `Cn1cc2c(Cl)c(-c3n[nH]c4nc(N5[C@H]6CC[C@@H]5[C@@H](F)[C@@H](N)C6)c(CO)nc34)ccc2n1` [Example 79, {6-[(1R,2S,3S,5S)-3-amino-2-fluoro-8-azabicyclo[3.2.1]octan-8-yl]-3-(4-chloro-2-methyl-2H-indazol-5-yl)-1H-pyrazolo[3,4-b]pyrazin-5-yl}methanol], under setting [1], the pIC50 was 8.04.

Turning to `COc1cnc2ccc(-c3c[nH]c4nc(N5[C@@H]6CC[C@H]5C[C@@H](N)C6)cnc34)c(Cl)c2n1` [Example 107, endo-8-[7-(5-chloro-3-methoxyquinoxalin-6-yl)-5H-pyrrolo[2,3-b]pyrazin-3-yl]-8-azabicyclo[3.2.1]octan-3-amine, hydrochloride], the pIC50 under setting [1] is 7.66.

On to `N[C@H]1C[C@H]2CC[C@@H](C1)N2c1cnc2c(-c3ccc4ccc(=O)[nH]c4c3Cl)c[nH]c2n1` [Example 35, 7-{3-[endo-3-amino-8-azabicyclo[3.2.1]octan-8-yl]-5H-pyrrolo[2,3-b]pyrazin-7-yl}-8-chloro-1,2-dihydroquinolin-2-one, hydrochloride salt], for which the negative-log IC50 (pIC50) under setting [1] is 6.72.

On to `Cn1nc2ccc(-c3c[nH]c4nc(N5[C@@H]6CC[C@H]5C[C@@H](N)C6)cnc34)c(Cl)c2c1CO` [Example 37, (5-{3-[endo-3-amino-8-azabicyclo[3.2.1]octan-8-yl]-5H-pyrrolo[2,3-b]pyrazin-7-yl}-4-chloro-2-methyl-2H-indazol-3-yl)methanol, methanesulfonic acid salt], for which the pIC50 under setting [1] was 7.29.

For `Cn1ccc(Cn2cc3c(Cl)c(-c4c[nH]c5nc(N6[C@@H]7CC[C@H]6C[C@@H](N)C7)cnc45)ccc3n2)n1` [Example 70, endo-8-(7-{4-chloro-2-[(1-methyl-1H-pyrazol-3-yl)methyl]-2H-indazol-5-yl}-5H-pyrrolo[2,3-b]pyrazin-3-yl)-8-azabicyclo[3.2.1]octan-3-amine, trihydrochloride salt], the pIC50 under setting [1] was 8.06.

In the case of `Cn1nc2ccc(-c3n[nH]c4nc(N5[C@@H]6CC[C@H]5[C@@H](F)[C@@H](N)C6)c(CO)nc34)c(Cl)c2c1Cl` [Example 85, {6-[(1S,2S,3S,5R)-3-amino-2-fluoro-8-azabicyclo[3.2.1]octan-8-yl]-3-(3,4-dichloro-2-methyl-2H-indazol-5-yl)-1H-pyrazolo[3,4-b]pyrazin-5-yl}methanol], under setting [1], the pIC50 is 8.12.

`Cn1cc2c(Cl)c(-c3c[nH]c4nc(N5CC[C@H](N)[C@H](F)C5)cnc34)ccc2n1` [Example 33, (3R,4S)-1-[7-(4-chloro-2-methyl-2H-indazol-5-yl)-5H-pyrrolo[2,3-b]pyrazin-3-yl]-3-fluoropiperidin-4-amine, hydrochloride salt]: the negative-log IC50 (pIC50) under setting [1] is 7.48.

`Cn1cc2c(Cl)c(-c3c[nH]c4nc(N5CCC(C)(N)CC5)cnc34)ccc2n1` [Example 5, 1-[7-(4-chloro-2-methyl-2H-indazol-5-yl)-5H-pyrrolo[2,3-b]pyrazin-3-yl]-4-methylpiperidin-4-amine]: the negative-log IC50 (pIC50) under setting [1] was 7.74.

Turning to `COc1cnc2ccc(-c3n[nH]c4nc(N5[C@@H]6CC[C@H]5CNC6)c(C)nc34)c(Cl)c2n1` [Example 119, 8-Chloro-7-(6-{3,8-diazabicyclo[3.2.1]octan-8-yl}-5-methyl-1H-pyrazolo[3,4-b]pyrazin-3-yl)-2-methoxyquinoxaline], the negative-log IC50 (pIC50) under setting [1] is 7.85.

On to `Cn1cnc2ccc(-c3c[nH]c4nc(N5[C@@H]6CC[C@H]5[C@@H](F)[C@@H](N)C6)cnc34)c(Cl)c2c1=O` [Example 77, 6-{3-[(1S,2S,3S,5R)-3-amino-2-fluoro-8-azabicyclo[3.2.1]octan-8-yl]-5H-pyrrolo[2,3-b]pyrazin-7-yl}-5-chloro-3-methyl-3,4-dihydroquinazolin-4-one], for which the negative logarithm of the IC50 (pIC50) was 7.74.

Regarding `Cn1cc2c(Cl)c(-c3c[nH]c4nc(N5CCC(N)CC5)cnc34)ccc2n1` [Example 4, 1-[7-(4-chloro-2-methyl-2H-indazol-5-yl)-5H-pyrrolo[2,3-b]pyrazin-3-yl]piperidin-4-amine], under setting [1], the negative logarithm of the IC50 (pIC50) was 7.80.

With `Cc1nc2c(-c3ccc4ncc(N(C)C)nc4c3Cl)n[nH]c2nc1N1[C@H]2CC[C@@H]1[C@@H](F)[C@@H](N)C2` [Example 96, 7-{6-[(1R,2S,3S,5S)-3-amino-2-fluoro-8-azabicyclo[3.2.1]octan-8-yl]-5-methyl-1H-pyrazolo[3,4-b]pyrazin-3-yl}-8-chloro-N,N-dimethylquinoxalin-2-amine], under setting [1], the pIC50 was 8.33.

For `Cn1nc2ccc(-c3c[nH]c4nc(N5[C@@H]6CC[C@H]5C[C@@H](N)C6)cnc34)c(Cl)c2c1C#N` [Example 62, 5-{3-[endo-3-amino-8-azabicyclo[3.2.1]octan-8-yl]-5H-pyrrolo[2,3-b]pyrazin-7-yl}-4-chloro-2-methyl-2H-indazole-3-carbonitrile], the pIC50 under setting [1] was 8.15.

Turning to `Cc1c2c(Cl)c(-c3n[nH]c4nc(N5[C@H]6CC[C@@H]5[C@@H](F)[C@@H](N)C6)c(CO)nc34)ccc2nn1C` [Example 99, {6-[(1R,2S,3S,5S)-3-amino-2-fluoro-8-azabicyclo[3.2.1]octan-8-yl]-3-(4-chloro-2,3-dimethyl-2H-indazol-5-yl)-1H-pyrazolo[3,4-b]pyrazin-5-yl}methanol], under “at 0.010 uM”, the “SHP2 (percent at stated concentration)” value came to 45%@0.010 uM.

With `Cn1cc2c(Cl)c(-c3c[nH]c4nc(N5CCC(N)(CO)CC5)cnc34)ccc2n1` [Example 7, {4-amino-1-[7-(4-chloro-2-methyl-2H-indazol-5-yl)-5H-pyrrolo[2,3-6]pyrazin-3-yl]piperidin-4-yl}methanol], the negative logarithm of the IC50 (pIC50) under setting [1] is 7.64.

In the case of `CCn1cc2c(Cl)c(-c3c[nH]c4nc(N5[C@@H]6CC[C@H]5C[C@H](N)C6)cnc34)ccc2n1` [Example 28, exo-8-[7-(4-chloro-2-ethyl-2H-indazol-5-yl)-5H-pyrrolo[2,3-b]pyrazin-3-yl]-8-azabicyclo[3.2.1]octan-3-amine, hydrochloride salt], under setting [1], the negative logarithm of the IC50 (pIC50) was 8.02.

Turning to `CC(C)(O)Cn1cc2c(Cl)c(-c3c[nH]c4nc(N5[C@@H]6CC[C@H]5C[C@@H](N)C6)cnc34)ccc2n1` [Example 53, 1-(5-{3-[endo-3-amino-8-azabicyclo[3.2.1]octan-8-yl]-5H-pyrrolo[2,3-b]pyrazin-7-yl}-4-chloro-2H-indazol-2-yl)-2-methylpropan-2-ol], the pIC50 under setting [1] was 7.54.

With `Cn1c(=O)sc2ccc(-c3c[nH]c4nc(N5CC[C@H](N)[C@H](F)C5)cnc34)c(Cl)c21` [Example 76, 5-{3-[(3R,4S)-4-amino-3-fluoropiperidin-1-yl]-5H-pyrrolo[2,3-b]pyrazin-7-yl}-4-chloro-3-methyl-2,3-dihydro-1,3-benzothiazol-2-one, hydrochloride], under setting [1], the pIC50 was 6.36.

As for `Cc1nc2ccc(-c3c[nH]c4nc(N5[C@@H]6CC[C@H]5C[C@@H](N)C6)cnc34)c(Cl)c2s1` [Example 15, endo-8-[7-(7-chloro-2-methyl-1,3-benzothiazol-6-yl)-5H-pyrrolo[2,3-b]pyrazin-3-yl]-8-azabicyclo[3.2.1]octan-3-amine, methanesulfonic acid salt], the negative-log IC50 (pIC50) under setting [1] is 8.23.
